# Measurements taken from patent US20260166122A1, “USE OF MICROPEPTIDE MIAC” (NANJING ANJI BIOTECHNOLOGY CO., LTD, priority 2023, published 2026).
# Read-outs that look alike come from different tables or passages of the source. Marks after values point to notes of the source that are not given here. Ends that are not written are not given here.
# How the values were obtained:
# Assay type in all cases: cell-based
# Details in all cases: 72 h
# [1] = test system: human monocytic leukemia cells Thp-1
# Protocol: (§1) Human pancreatic cancer, hepatocellular carcinoma, colorectal cancer, ovarian cancer, cervical cancer, bladder cancer, melanoma, glioblastoma, neuroblastoma, glioma, osteosarcoma, myeloma, lymphoma, hematologic malignancies, and cholangiocarcinoma cells were cultured in an incubator at 37° C. with 5% CO2 until the density reached 90%, then digested and collected with trypsin, resuspended in a culture medium, and counted under a microscope; the cell concentration was adjusted to about 1.0×10^5 cells/mL; and the cell suspension was inoculated into a 96-well plate, with 100 μL per well, and incubated overnight in an incubator at 37° C. with 5% CO2. After the cells were completely attached to the wall, 100 μL of micropeptides MIAC with concentrations of 50 μM, 100 μM and 200 μM were added to form an administration group; and a culture medium without any medicament was used as a negative control group. After continuing incubation for 72 h, 100 μL of CCK8 was added to each well of the 96-well plate for dissolving. The absorbance OD was measured at a detection wavelength of 450 nm with a microplate reader, and the proliferation inhibition (PI) was calculated using the formula of PI (%)=1-administration group/negative control group. The experiment was repeated 3 times independently, the results were expressed as Mean±SD, and a statistical T test was performed, where *P<0.05 indicated a significant difference and **P<0.01 indicated an extremely significant difference.
# [2] = test system: human ovarian cancer cells SKOV3
# Protocol: as §1
# [3] = test system: human pancreatic cancer cells PANC-1
# Protocol: as §1
# [4] = test system: human colon cancer cells LOVO
# Protocol: as §1
# [5] = test system: human colon cancer cells HCT-116
# Protocol: as §1
# [6] = test system: peripheral blood B lymphocytes RPMI-8226 in human multiple myeloma
# Protocol: as §1
# [7] = test system: human glioma cells SHG-44
# Protocol: as §1
# [8] = test system: human T-cell acute lymphoblastic leukemia cells JurKat
# Protocol: as §1
# [9] = test system: human osteosarcoma cells MG-63
# Protocol: as §1
# [10] = test system: human pancreatic cancer cells Aspc-1
# Protocol: as §1
# [11] = test system: human ovarian cancer cells A2780
# Protocol: as §1
# [12] = test system: human hepatocellular carcinoma cells HCCLM3
# Protocol: as §1
# [13] = test system: human hepatocellular carcinoma cells HepG2
# Protocol: as §1
# [14] = test system: human cholangiocarcinoma cells QBC939
# Protocol: as §1
# [15] = test system: human acute promyelocytic leukemia cells NB4
# Protocol: as §1
# [16] = test system: human malignant melanoma cells M14
# Protocol: as §1
# [17] = test system: human osteosarcoma cells U-2OS
# Protocol: as §1
# [18] = test system: human cervical cancer cells SIHA
# Protocol: as §1
# [19] = test system: human diffuse large B-cell lymphoma cells OCI-LY10
# Protocol: as §1
# [20] = test system: human myeloid leukemia cells HL60
# Protocol: as §1
# [21] = test system: human chronic myeloid leukemia cells K562
# Protocol: as §1
# [22] = test system: human myeloma cells NCI-H929
# Protocol: as §1
# [23] = test system: human malignant melanoma cells A375
# Protocol: as §1
sequence,measurement,setting,value
"MERAGVPGFSPRRSSVEAKMQSTSCSVRKSSTVTAWPAVVLLLSWGQRRGG [MIAC, micropeptide inhibiting actin cytoskeleton]",OD,"[1]; Thp-1, 50 μM",1.265 ± 0.059
same,OD,"[1]; Thp-1, 100 μM",0.841 ± 0.058**
same,OD,"[1]; Thp-1, 200 μM",0.681 ± 0.045**
same,OD,"[2]; SKOV3, 50 μM",1.244 ± 0.282**
same,OD,"[2]; SKOV3, 100 μM",0.843 ± 0.049**
same,OD,"[2]; SKOV3, 200 μM",0.727 ± 0.038**
same,OD,"[3]; PANC-1, 50 μM",1.027 ± 0.073
same,OD,"[3]; PANC-1, 100 μM",0.708 ± 0.043**
same,OD,"[3]; PANC-1, 200 μM",0.427 ± 0.02**
same,OD,[4]; 50 μM,1.148 ± 0.008**
same,OD,[4]; 100 μM,0.970 ± 0.021**
same,OD,[4]; 200 μM,0.624 ± 0.026**
same,OD,"[5]; HCT-116, 50 μM",1.253 ± 0.019**
same,OD,"[5]; HCT-116, 100 μM",0.976 ± 0.038**
same,OD,"[5]; HCT-116, 200 μM",0.688 ± 0.047**
same,OD,"[6]; RPMI-8226, 50 μM",2.008 ± 0.023
same,OD,"[6]; RPMI-8226, 100 μM",1.001 ± 0.027**
same,OD,"[6]; RPMI-8226, 200 μM",0.522 ± 0.028**
same,OD,"[7]; SHG-44, 50 μM",1.201 ± 0.026
same,OD,"[7]; SHG-44, 100 μM",0.838 ± 0.067**
same,OD,"[7]; SHG-44, 200 μM",0.393 ± 0.021**
same,OD,[8]; 50 μM,0.984 ± 0.032
same,OD,[8]; 100 μM,0.730 ± 0.032**
same,OD,[8]; 200 μM,0.559 ± 0.038**
same,OD,"[9]; MG-63, 50 μM",1.049 ± 0.011**
same,OD,"[9]; MG-63, 100 μM",0.691 ± 0.033**
same,OD,"[9]; MG-63, 200 μM",0.365 ± 0.009**
same,OD,"[10]; Aspc-1, 50 μM",0.939 ± 0.015
same,OD,"[10]; Aspc-1, 100 μM",0.711 ± 0.047**
same,OD,"[10]; Aspc-1, 200 μM",0.509 ± 0.019**
same,OD,"[11]; A2780, 50 μM",0.985 ± 0.046**
same,OD,"[11]; A2780, 100 μM",0.791 ± 0.067**
same,OD,"[11]; A2780, 200 μM",0.441 ± 0.018**
same,OD,"[12]; HCCLM3, 50 μM",1.420 ± 0.054
same,OD,"[12]; HCCLM3, 100 μM",0.981 ± 0.019**
same,OD,"[12]; HCCLM3, 200 μM",0.706 ± 0.041**
same,OD,"[13]; HepG2, 50 μM",0.575 ± 0.047**
same,OD,"[13]; HepG2, 100 μM",0.267 ± 0.022**
same,OD,"[13]; HepG2, 200 μM",0.169 ± 0.015**
same,OD,"[14]; QBC939, 50 μM",1.13 ± 0.053
same,OD,"[14]; QBC939, 100 μM",0.757 ± 0.028**
same,OD,"[14]; QBC939, 200 μM",0.468 ± 0.045**
same,OD,"[15]; NB4, 50 μM",1.177 ± 0.042**
same,OD,"[15]; NB4, 100 μM",0.826 ± 0.066**
same,OD,"[15]; NB4, 200 μM",0.624 ± 0.052**
same,OD,"[16]; M14, 50 μM",1.585 ± 0.030
same,OD,"[16]; M14, 100 μM",1.046 ± 0.060**
same,OD,"[16]; M14, 200 μM",0.639 ± 0.046**
same,OD,[17]; 50 μM,0.887 ± 0.024
same,OD,[17]; 100 μM,0.596 ± 0.061**
same,OD,[17]; 200 μM,0.350 ± 0.013**
same,OD,[18]; 50 μM,0.844 ± 0.099**
same,OD,[18]; 100 μM,0.755 ± 0.103**
same,OD,[18]; 200 μM,0.261 ± 0.052**
same,OD,"[19]; OCI-LY10, 50 μM",0.719 ± 0.028**
same,OD,"[19]; OCI-LY10, 100 μM",0.598 ± 0.033**
same,OD,"[19]; OCI-LY10, 200 μM",0.376 ± 0.019**
same,OD,"[20]; HL60, 50 μM",1.378 ± 0.029**
same,OD,"[20]; HL60, 100 μM",0.725 ± 0.027**
same,OD,"[20]; HL60, 200 μM",0.549 ± 0.023**
same,OD,"[21]; K562, 50 μM",1.004 ± 0.012**
same,OD,"[21]; K562, 100 μM",0.544 ± 0.062**
same,OD,"[21]; K562, 200 μM",0.338 ± 0.025**
same,OD,"[22]; NCI-H929, 50 μM",0.860 ± 0.012**
same,OD,"[22]; NCI-H929, 100 μM",0.427 ± 0.016**
same,OD,"[22]; NCI-H929, 200 μM",0.263 ± 0.026**
same,OD,"[23]; A375, 50 μM",1.310 ± 0.069**
same,OD,"[23]; A375, 100 μM",1.194 ± 0.043**
same,OD,"[23]; A375, 200 μM",0.911 ± 0.071**
